In patent US20170253607A1, “LONG-ACTING HIV PROTEASE INHIBITOR” (Shionogi & Co., Ltd., priority 2014, published 2017):

What was measured:
[1] = Evaluation of total body clearance (CLtot), intravenous administration; assay type: in vivo, Sprague-Dawley (SD); conditions: rat (SD), intravenous administration 0.5-10 mg/kg; CLtot = dose/AUC
Summary of the method: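 Compounds given as a single tail-vein injection at 0.5-10 mg/kg (n=2-3), dose varying by compound. Plasma sampled at scheduled times and measured by LC/MS/MS; CLtot derived as dose divided by AUC from pharmacokinetic analysis.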

HIV-1 PR = HIV-1 PR (Human immunodeficiency virus type 1 group M subtype B, UniProt P04585); test: HIV-protease inhibitory activity assay (FRET peptide substrate); assay type: biochemical; conditions: Test Example 1
Summary of the method: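 Fluorescence recovery at ex 485/em 535 nm reports cleavage of a quenched FRET peptide (2 μmol/L final) by 0.83 ng enzyme over 60 minutes at room temperature. Buffer was NaAc pH 4.8 with NaCl, EDTA, DTT and Tween 20. IC50 values came from four-parameter logistic regression of % inhibition.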

[2] = Protein binding test (equilibrium dialysis, unbound ratio fu in serum); assay type: in vitro ADME; conditions: 37° C.; for rat_fu: rat serum, equilibrium dialysis 24 hours, 2 μg/mL
Description: Assay condition: Evaluation method; Equilibrium dialysis method, Reaction time; 24 hours, Reaction temperature; 37° C., Assay concentration; 2 μg/mL A solution of the compound was added to each serum and mixed to prepare the serum samples with above concentration. The serum sample was put into one side of an equilibrium dialysis apparatus with dialysis membrane and phosphate buffered saline (PBS) was also put to another side of the apparatus. The apparatus was incubated at 37° C. for 24 hours. After incubation, the serum and PBS samples were collected and the compound concentrations in both samples were measured by LC/MS/MS. Fu was calculated by dividing the concentration in PBS by the concentration in the serum.

COc1ccc(S(=O)(=O)N(CC(C)C)C[C@@H](O)[C@H](Cc2ccc(OCc3ccccc3-c3sc4c(c3C(=O)O)CC(C)(C)CC4)cc2)NC(=O)O[C@H]2CO[C@@]3(C)OCC[C@@H]23)cc1 [Compound I-1]
rat_CLt [1]: 0.542 mL/min/kg
IC50 (HIV-1 PR): 1.29 nM
rat_fu [2]: <0.1%

COc1ccc(S(=O)(=O)N(CC(C)C)C[C@@H](O)[C@H](Cc2ccc(OCc3ccccc3-c3sc4c(c3C(=O)O)CCCC4=O)cc2)NC(=O)O[C@H]2CO[C@@]3(C)OCC[C@@H]23)cc1 [Compound I-2]
rat_CLt [1]: 5.11 mL/min/kg
IC50 (HIV-1 PR): 1.05 nM
rat_fu [2]: <0.1%

COc1ccc(S(=O)(=O)N(CC(C)C)C[C@@H](O)[C@H](Cc2ccc(O[C@@H]3CCN(c4ccccc4-c4sc5c(c4C(=O)O)CC(C)(C)CC5)C3)cc2)NC(=O)O[C@H]2CO[C@@]3(C)OCC[C@@H]23)cc1 [Compound I-6]
rat_CLt [1]: 1.22 mL/min/kg
IC50 (HIV-1 PR): 1.36 nM
rat_fu [2]: <0.1%

COc1ccc(S(=O)(=O)N(CC(C)C)C[C@@H](O)[C@H](Cc2ccc(OC(C)(C)C(=O)Nc3sc4c(c3C(=O)O)CC(C)(C)CC4)cc2)NC(=O)O[C@H]2CO[C@@]3(C)OCC[C@@H]23)cc1 [Compound I-7]
rat_CLt [1]: 0.238 mL/min/kg
IC50 (HIV-1 PR): 2.31 nM
rat_fu [2]: <0.1%

COc1ccc(S(=O)(=O)N(CC(C)C)C[C@@H](O)[C@H](Cc2ccc(CCc3sc4c(c3C(=O)O)CC(C)(C)CC4)cc2)NC(=O)O[C@H]2CO[C@@]3(C)OCC[C@@H]23)cc1 [Compound I-12]
rat_CLt [1]: 2.9 mL/min/kg
IC50 (HIV-1 PR): 1.82 nM
rat_fu [2]: <0.1%

CC(C)CN(C[C@@H](O)[C@H](Cc1ccc(CCc2sc3c(c2C(=O)O)CC(C)(C)CC3)cc1)NC(=O)O[C@H]1CO[C@@]2(C)OCC[C@@H]12)S(=O)(=O)c1ccc2nc(N)sc2c1 [Compound I-15]
rat_CLt [1]: 4.86 mL/min/kg
IC50 (HIV-1 PR): 2.27 nM
rat_fu [2]: <0.1%

COc1ccc(S(=O)(=O)N(CC(C)C)CC(O)C(Cc2ccc(OCc3ccccc3-c3sc4c(c3C(=O)O)CC(C)(C)CC4)cc2)NC(=O)OC2CC3OCC(O)C3C2)cc1 (stereo not shown) [Compound I-29]
rat_CLt [1]: 1.54 mL/min/kg
IC50 (HIV-1 PR): 1.41 nM
rat_fu [2]: <0.1%

COc1ccc(S(=O)(=O)N(CC(C)C)C[C@@H](O)[C@H](Cc2ccc(OCc3ccccc3-c3sc4c(c3C(=O)O)CC(C)(C)CC4)cc2)NC(=O)[C@H](CC(N)=O)NC(=O)c2ccc3ccccc3n2)cc1 [Compound I-30]
rat_CLt [1]: 1.52 mL/min/kg
IC50 (HIV-1 PR): 3.67 nM
rat_fu [2]: <0.1%

CC(C)CN(CC(O)C(Cc1ccc(CCc2sc3c(c2C(=O)O)CC(C)(C)CC3)cc1)NC(=O)OC1COC2(C)OCCC12)S(=O)(=O)c1ccc(N)cc1 (stereo not shown) [Compound I-43]
rat_CLt [1]: 3.19 mL/min/kg
IC50 (HIV-1 PR): 2 nM
rat_fu [2]: <0.1%

COc1ccc(S(=O)(=O)N(CC(C)C)CC(O)C(Cc2ccc(OCc3ncccc3-c3ccc(-c4sc5c(c4C(=O)O)CC(C)(C)CC5)cc3)cc2)NC(=O)OC2COC3(C)OCCC23)cc1 (stereo not shown) [Compound I-44]
rat_CLt [1]: 0.535 mL/min/kg
IC50 (HIV-1 PR): 1.09 nM
rat_fu [2]: <0.1%

COc1ccc(S(=O)(=O)N(CC(C)C)CC(O)C(Cc2ccc(N(Cc3ccccc3)Cc3sc4c(c3C(=O)O)CC(C)(C)CC4)cc2)NC(=O)OC2COC3(C)OCCC23)cc1 (stereo not shown) [Compound I-47]
rat_CLt [1]: 3.51 mL/min/kg
IC50 (HIV-1 PR): 5.41 nM
rat_fu [2]: <0.1%

COc1ccc(S(=O)(=O)N(CC(C)C)CC(O)C(Cc2ccc(OCc3ccccc3-c3oc4c(c3C(=O)O)CC(C)(C)CC4)cc2)NC(=O)OC2COC3(C)OCCC23)cc1 (stereo not shown) [Compound I-49]
rat_CLt [1]: 2.23 mL/min/kg
IC50 (HIV-1 PR): 2.5 nM
rat_fu [2]: <0.1%

CC(C)CN(CC(O)C(Cc1ccc(OCc2ccccc2-c2sc3c(c2C(=O)O)CC(C)(C)CC3)cc1)NC(=O)OC1COC2(C)OCCC12)S(=O)(=O)c1ccc2nc(N)sc2c1 (stereo not shown) [Compound I-51]
rat_CLt [1]: 1.47 mL/min/kg
IC50 (HIV-1 PR): 2.65 nM
rat_fu [2]: <0.1%

COc1ccc(S(=O)(=O)N(CC(C)C)CC(O)C(Cc2ccc(OCc3ccccc3-c3sc4c(c3C(=O)O)CC(C)(C)CC4)cc2)NC(=O)OC2COC3(C)OCC(OCc4ccccc4)C23)cc1 (stereo not shown) [Compound I-55]
rat_CLt [1]: 0.752 mL/min/kg
IC50 (HIV-1 PR): 7.34 nM
rat_fu [2]: <0.1%

COc1ccc(S(=O)(=O)N(CC(C)C)CC(O)C(Cc2ccc(OCc3ccccc3-c3sc(N(C4CCCCC4)C4CCCCC4)nc3C(=O)O)cc2)NC(=O)OC2COC3(C)OCCC23)cc1 (stereo not shown) [Compound I-74]
rat_CLt [1]: 3.88 mL/min/kg
IC50 (HIV-1 PR): 1.71 nM
rat_fu [2]: <0.1%

COc1ccc(S(=O)(=O)N(CC(C)C)CC(O)C(Cc2ccc(OCc3cc(C#N)ccc3-c3sc4c(c3C(=O)O)CC(C)(C)CC4)cc2)NC(=O)OC2COC3(C)OCCC23)cc1 (stereo not shown) [Compound I-79]
rat_CLt [1]: 3.15 mL/min/kg
IC50 (HIV-1 PR): 1.74 nM
rat_fu [2]: <0.1%

COc1ccc(S(=O)(=O)N(CC(C)C)CC(O)C(Cc2ccc(OCc3ncccc3-c3sc4c(c3C(=O)O)CC(C)(C)CC4)cc2)NC(=O)OC2COC3(C)OCCC23)cc1 (stereo not shown) [Compound I-88]
rat_CLt [1]: 2.5 mL/min/kg
IC50 (HIV-1 PR): 0.86 nM
rat_fu [2]: <0.1%

COc1ccc(S(=O)(=O)N(CC(C)C)CC(O)C(Cc2ccc(OCc3ncc(Cl)cc3-c3sc4c(c3C(=O)O)CC(C)(C)CC4)cc2)NC(=O)OC2COC3(C)OCCC23)cc1 (stereo not shown) [Compound I-93]
rat_CLt [1]: 2.22 mL/min/kg
IC50 (HIV-1 PR): 0.99 nM
rat_fu [2]: <0.1%

COc1ccc(S(=O)(=O)N(CC(C)C)CC(O)C(Cc2ccc(OCc3ccccc3-c3sc4c(c3C(=O)O)CC(C)(C)CC4)cc2)NC(=O)OC2COC3(CO)OCCC23)cc1 (stereo not shown) [Compound I-99]
rat_CLt [1]: 0.576 mL/min/kg
IC50 (HIV-1 PR): 0.81 nM
rat_fu [2]: <0.1%

COc1ccc(S(=O)(=O)N(CC(C)C)CC(O)C(Cc2ccc(OC3CCCN(c4ccccc4-c4sc5c(c4C(=O)O)CC(C)(C)CC5)C3)cc2)NC(=O)OC2COC3(C)OCCC23)cc1 (stereo not shown) [Compound I-102]
rat_CLt [1]: 4.24 mL/min/kg
IC50 (HIV-1 PR): 3.83 nM
rat_fu [2]: <0.1%

COc1ccc(S(=O)(=O)N(CC(C)C)CC(O)C(Cc2ccc(CCc3sc4c(c3C(=O)O)CC(C)(C)CC4(C)C)cc2)NC(=O)OC2COC3(C)OCCC23)cc1 (stereo not shown) [Compound I-105]
rat_CLt [1]: 2.29 mL/min/kg
IC50 (HIV-1 PR): 2.42 nM
rat_fu [2]: <0.1%

CC(C)CN(CC(O)C(Cc1ccc(CCc2sc3c(c2C(=O)O)CC(C)(C)CC3)cc1)NC(=O)OC1COC2(C)OCCC12)S(=O)(=O)c1ccc2c(c1)OCO2 (stereo not shown) [Compound I-106]
rat_CLt [1]: 3.49 mL/min/kg
IC50 (HIV-1 PR): 2.57 nM
rat_fu [2]: <0.1%

COc1ccc(S(=O)(=O)N(CC(C)C)CC(O)C(Cc2ccc(OCc3ccccc3-c3sc4c(c3C(=O)O)CC(C)(C)CC4(C)C)cc2)NC(=O)OC2COC3(C)OCCC23)cc1 (stereo not shown) [Compound I-113]
rat_CLt [1]: 1.18 mL/min/kg
IC50 (HIV-1 PR): 1.84 nM
rat_fu [2]: <0.1%

CC(C)CN(CC(O)C(Cc1ccc(OCc2ccccc2-c2sc3c(c2C(=O)O)CC(C)(C)CC3(C)C)cc1)NC(=O)OC1COC2(C)OCCC12)S(=O)(=O)c1ccc2ncsc2c1 (stereo not shown) [Compound I-119]
rat_CLt [1]: 2.29 mL/min/kg
IC50 (HIV-1 PR): 1.23 nM
rat_fu [2]: <0.1%

CC(C)CN(CC(O)C(Cc1ccc(OCc2ccccc2-c2sc3c(c2C(=O)O)CC(C)(C)CC3)cc1)NC(=O)OC1COC2(C)OCCC12)S(=O)(=O)c1ccc2nc(O)sc2c1 (stereo not shown) [Compound I-131]
rat_CLt [1]: 2.27 mL/min/kg
IC50 (HIV-1 PR): 2.12 nM
rat_fu [2]: <0.1%

CC(C)CN(CC(O)C(Cc1ccc(OCc2ccccc2-c2sc3c(c2C(=O)O)CC(C)(C)CC3)cc1)NC(=O)OC1COC2(C)OCCC12)S(=O)(=O)c1ccc2c(c1)OCO2 (stereo not shown) [Compound I-132]
rat_CLt [1]: 0.376 mL/min/kg
IC50 (HIV-1 PR): 2.66 nM
rat_fu [2]: <0.1%

COc1ccc(S(=O)(=O)N(CC(C)C)CC(O)C(Cc2ccc(Oc3ccc(C)c(-c4sc5c(c4C(=O)O)CC(C)(C)CC5)c3)cc2)NC(=O)OC2COC3(C)OCCC23)cc1 (stereo not shown) [Compound I-134]
rat_CLt [1]: 3.92 mL/min/kg
IC50 (HIV-1 PR): 2.04 nM
rat_fu [2]: <0.1%

Cc1cc(Oc2ccc(CC(NC(=O)OC3COC4(C)OCCC34)C(O)CN(CC(C)C)S(=O)(=O)c3ccc4ncsc4c3)cc2)ccc1-c1sc2c(c1C(=O)O)CC(C)(C)CC2 (stereo not shown) [Compound I-138]
rat_CLt [1]: 1.6 mL/min/kg
IC50 (HIV-1 PR): 2.66 nM
rat_fu [2]: <0.1%

COc1ccc(S(=O)(=O)N(CC2CCCC2)CC(O)C(Cc2ccc(OCc3ccccc3-n3nc4c(c3C(=O)O)CC(C)(C)CC4)cc2)NC(=O)OC2COC3(C)OCCC23)cc1 (stereo not shown) [Compound I-139]
rat_CLt [1]: 0.286 mL/min/kg
IC50 (HIV-1 PR): 0.78 nM
rat_fu [2]: <0.1%

CC(C)CN(C[C@@H](O)[C@H](Cc1ccccc1)NC(=O)O[C@H]1CO[C@H]2OCC[C@H]21)S(=O)(=O)c1ccc(N)cc1 [Darunavir, (3R,3aS,6aR)-hexahydrofuro[2,3-b]furan-3-yl[(1S,2R)-3-{[(4-aminophenyl)sulfonyl] (2-methylpropyl)amino}-1-benzyl-2-hydroxypropyl]carbamate, reference compound]
fraction unbound at 24 h, 2 μg/mL ([2]; serum, equilibrium dialysis, 24 hours, read-out: Serum protein binding rate (converted)): 0.903
